Earlier results, collected in patent publication US20040072738A1, “Analogues of thiocoraline and be-22179” (priority 2000, published 2004).
Bridge positions count the residues as written; N and C are the ends. Square brackets hold non-standard residues; d marks the D form. Peptide text beside a SMILES is read from it. I, II: the chains in the order shown. * marks the point of attachment. Quinaldoyl(3-OH) = O=C(c1nc2ccccc2cc1O)*; NMeC = CN[C@@H](CS)C(=O)O

Target: T1, DNA topoisomerase I (Homo sapiens, UniProt P11387)
T1 sequence (P11387 1-765): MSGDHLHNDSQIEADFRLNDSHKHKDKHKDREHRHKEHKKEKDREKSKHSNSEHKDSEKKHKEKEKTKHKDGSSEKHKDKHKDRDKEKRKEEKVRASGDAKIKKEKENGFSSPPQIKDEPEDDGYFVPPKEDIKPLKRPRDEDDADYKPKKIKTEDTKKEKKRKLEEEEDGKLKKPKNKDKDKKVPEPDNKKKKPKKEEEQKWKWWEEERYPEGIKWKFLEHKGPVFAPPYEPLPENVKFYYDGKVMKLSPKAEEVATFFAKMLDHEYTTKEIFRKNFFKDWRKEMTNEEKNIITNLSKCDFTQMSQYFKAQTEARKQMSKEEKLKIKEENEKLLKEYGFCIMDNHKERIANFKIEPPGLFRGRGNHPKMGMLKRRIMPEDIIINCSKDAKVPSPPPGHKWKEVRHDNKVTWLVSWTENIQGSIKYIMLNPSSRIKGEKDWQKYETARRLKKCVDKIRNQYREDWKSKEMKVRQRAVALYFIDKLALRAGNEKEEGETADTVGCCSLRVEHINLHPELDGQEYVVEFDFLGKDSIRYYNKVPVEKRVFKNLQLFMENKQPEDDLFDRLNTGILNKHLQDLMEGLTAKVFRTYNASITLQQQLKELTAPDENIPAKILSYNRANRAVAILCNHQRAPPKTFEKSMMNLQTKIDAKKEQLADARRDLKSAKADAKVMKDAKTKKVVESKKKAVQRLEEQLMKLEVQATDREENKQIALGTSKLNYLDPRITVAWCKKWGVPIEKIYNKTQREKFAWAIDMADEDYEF
Conditions: cited from earlier work

SMILES: CSC[C@H]1C(=O)SC[C@@H](NC(=O)c2nc3ccccc3cc2O)C(=O)NCC(=O)N(C)[C@H]2CSSC[C@@H](C(=O)N1C)N(C)C(=O)CNC(=O)[C@H](NC(=O)c1nc3ccccc3cc1O)CSC(=O)[C@H](CSC)N(C)C2=O [Thiocoraline] (I: {Quinaldoyl(3-OH)}-[dC]G[NMeC][NMeC](Me) / II: {Quinaldoyl(3-OH)}-[dC]G[NMeC][NMeC](Me); thioester I:1-II:C, I:C-II:1; disulfide I:3-II:3)
- inhibition of DNA topoisomerase I: does not inhibit
